Where “and” joins values, the source holds several entries; their conditions need not be identical. Equal entries are not always repeated.

Usually inhibition stands for the drop in the measured response relative to a control, in per cent.

The target of one assay is T1, Recombinant human PKCα (Homo sapiens, UniProt P17252).
T1 construct: purchased PanVera Corp., Madison, Wis
As to the kind of experiment: Assay of PKCα catalytic activity in vitro. In kind it is biochemical. The conditions noted are these: for IC50: reversible binding conditions, average of two or more independent experiments (± s.d.), read-out: IC50 (analogue concentration producing 50% inhibition of PKCα activity); for fold stronger inhibitory potency compared with C6-DECA (1a): IC50 ratio versus 1a; for fold stronger inhibitory potency than 1c: IC50 ratio versus 1c (C10-DECA). How it is done:
Assay of PKCα Catalytic Activity In Vitro
(§1) Recombinant human PKCα (>95% pure) (PanVera Corp., Madison, Wis.) was used for testing DECA analogues in vitro. Total PKCα catalytic activity (36 ng protein) and the indicated concentration of DECA analogue was measured in triplicate in the presence of activating cofactors (10 μg phosphatidylserine, 0.5 mM Ca^2+) by the transfer of ^32P from [γ-^32P]-ATP to the modified pseudosubstrate peptide (RFARKGSLRQKNV), as described elsewhere^1. For assay of partially purified B16 F10 cell lysates (25 μg/assay), PKC activity was taken as the difference in phosphotransferase activity measured in triplicate in the presence and absence of activating cofactors (10 μg phosphatidylserine, 0.5 mM Ca^2+) as previously described^2.

Assay [1] concerns the target pp60src tyrosine protein kinase (Homo sapiens, UniProt P12931). Briefly: Inhibition of homologous protein kinase pp60src. In kind it is biochemical. The conditions noted are these: micromolar concentrations.
The target in another assay is T2, intracellular PKCα (Mus musculus, UniProt P20444).
T2 construct: endogenous in cells; host or cells: murine melanoma B16 F10 cells
As to the kind of experiment: Photoinduced inactivation of intracellular PKC activity in melanoma cells (DECA analogue plus longwave UV). The conditions noted are these: B16 F10 cells; for inhibition at 0.25 µM: 250 nM, 1 h, plus UV irradiation 5 min. In kind it is cell-based, murine. How it is done: as §1
Inactivation of PKCα in Murine Melanoma Cells with Ultraviolet Radiation and DECA Analogues
Murine melanoma B16 F10 cells were cultured in 15 cm^2 dishes to 75-80% confluence in RPMI medium containing 10% fetal bovine serum, 1% penicillin/streptomycin, and 0.125 μg/ml fungizone. Prior to drug application, cells were washed twice with phosphate buffered saline (PBS) and were restored in serum-free medium containing either DMSO (0.1% v/v) or 250 nM C12-, C14-, or C16-DECA analogue. Monolayers of cells were treated with or without the indicated DECA analogue for 1 h and irradiated for 5-min (1200 μW/cm^2) with a UV lamp (American Ultraviolet Co., Murray Hill, N.J.). Following this treatment, the medium was removed and the cells were washed twice with PBS. Preparation of cell lysates was followed by partial purification by DEAE-Sephacel chromatography, as previously described^2.
(§2) A confluent monolayer of cells was washed twice with PBS and the indicated concentration of DECA analogue was added to the cells in serum-free medium. Cells were treated with or without the drug for 1 h at 37° C., 5% CO2, followed by washing with PBS. In PBS and with the lids off, cells were irradiated with longwave UV light for 5-min (1200 μW/cm^2). […]

Assay [2] has as its system murine melanoma B16 F10 cells. As to the kind of experiment: Time-lapse cell motility (scratch wound) assay. In kind it is cell-based. Conditions: 250 nM plus UV 5 min. On the procedure:
To measure cell motility by digital image capture, an Olympus IMT-2 inverted phase contrast microscope (Olympus Microscopes, UK), fitted with a Fujitsu TC2-336P CCD camera (EOS Electronics AV Ltd, Barry, Wales) and surrounded by a perspex temperature-regulated jacket that was adjusted to 37° C. Cells were plated onto 3-cm^2 petri dishes such that a densely confluent monolayer was achieved within 24 or 48 h. Following treatment of cells with C10-DECA and UV, a ‘scratch wound’ was created by drawing a sterile micro-pipette tip along the monolayer using a ruler as a guide. Detached cells were removed by washing twice in growth medium before adding 2 ml fresh medium. […] The chamber was gassed with 10% CO2 in humidified air and was placed onto the stage of the microscope. A regular wound edge was chosen and digital images were collected every 30 min for 8 h onto a Power Mac 7100 using Adobe Premier software. The percentage of the capture window (determined as 726 μm×544 μm) that had been filled in by the movement of cells (normalized to the original wound edge) was determined with Optilab software and plotted against time.
A confluent monolayer of cells was washed twice with PBS and the indicated concentration of DECA analogue was added to the cells in serum-free medium. Cells were treated with or without the drug for 1 h at 37° C., 5% CO2, followed by washing with PBS. […]

For assay [3], the target named is cAMP-dependent protein kinase (PKA) (Homo sapiens, UniProt P17612). As to the kind of experiment: Inhibition of homologous protein kinase PKA. Format: biochemical. The conditions noted are these: micromolar concentrations.
Assay [4] has as its system calmodulin-dependent myosin light chain kinase. As to the kind of experiment: Inhibition of homologous protein kinase MLCK. The conditions noted are these: micromolar concentrations. In kind it is biochemical.
Assay [5] concerns murine melanoma B16 F10 cells. As to the kind of experiment: Cell migration in transwell (Boyden chamber). Format: cell-based. The conditions noted are these: for inhibition of cell migration: 250 nM plus UV 5 min, initial 3 h post-treatment, Boyden chamber. On the procedure:
A 12-mm Costar transwell (Boyden chamber) having a 12-μm pore size was used to measure cell movement across a porous polycarbonate membrane. The bottom surface was coated with 35 μg Matrigel for 1 h at 37° C., 5% CO2. Cells were seeded into the upper chamber of the transwell at 10^5 cells/well and incubated at 37° C., 5% CO2. Following incubation for 3 h, the upper chamber was carefully wiped with a cotton swab in order to remove cells that remained on the upper membrane surface. Those cells that had migrated to the lower membrane surface were fixed and stained by the H+E Method (Fisher Diagnostics Leukostat). By use of a Nikon Diaphot-TMD inverted microscope at 400× magnification, eight fields of adherent cells were randomly counted in each well and numerically averaged. Each condition was conducted in triplicate and statistical significance was determined by ANOVA using SigmaStat software.
Inhibition of cell migration by 250 nM DECA analogues (C10-(control), C12-, and C14-DECA) was analyzed during the initial 3 h post-treatment by the use of Boyden chambers. Cells that had been treated with a DECA analogue plus UV were applied to the upper surface of the membrane whereupon they moved chemotactically through the membrane, and adhered to Matrigel, which had been coated onto the under surface of the membrane. Following the initial 3 h, the number of cells migrating to this lower surface was measured.
as §2, with “μW/cm^2). Irradiation was carried out with a longwave UV lamp (American Ultraviolet Co., Murray Hill, N.J.) while the plate of cells were subjected to gentle shaking at room temperature. Following this treatment, the medium was removed and the cells were washed twice with PBS.” for “μW/cm^2).”

Assay [6] addresses protein kinase C (PKC) isoforms (e.g., α, β1). The conditions noted are these: several isoforms (e.g., α, β1); read-out: IC50 for PKC isoforms in vitro; cited from earlier work.
Another assay has as its system B16F10 cells. Briefly: Experimental metastasis in mice (B16F10 tail vein injection, pulmonary nodules). In kind it is in vivo, C57BL/6 mice. The conditions noted are these: 5 mg/kg IP every other day for 2 weeks, versus vehicle. How it is done:
In preparation for tail vein injections, mice were tranquilized with 0.2 mg of acepromazine via i.p. injections. B16F10 cells obtained from ex-vivo culture were injected into the tail vein (10^5 cells/0.2 ml). Animals were treated IP with vehicle (0.36% sodium citrate) or 5 mg/kg of C14-DECA on the day of the tail vein injection and every other day thereafter for a 2-3 week experiment. At the end of the experimental period, the mice were sacrificed by CO2 asphyxiation. The lungs were removed and placed in 10% formalin until the metastatic nodules were counted using a dissecting microscope.

Sequence of pp60src tyrosine protein kinase (P12931 whole entry): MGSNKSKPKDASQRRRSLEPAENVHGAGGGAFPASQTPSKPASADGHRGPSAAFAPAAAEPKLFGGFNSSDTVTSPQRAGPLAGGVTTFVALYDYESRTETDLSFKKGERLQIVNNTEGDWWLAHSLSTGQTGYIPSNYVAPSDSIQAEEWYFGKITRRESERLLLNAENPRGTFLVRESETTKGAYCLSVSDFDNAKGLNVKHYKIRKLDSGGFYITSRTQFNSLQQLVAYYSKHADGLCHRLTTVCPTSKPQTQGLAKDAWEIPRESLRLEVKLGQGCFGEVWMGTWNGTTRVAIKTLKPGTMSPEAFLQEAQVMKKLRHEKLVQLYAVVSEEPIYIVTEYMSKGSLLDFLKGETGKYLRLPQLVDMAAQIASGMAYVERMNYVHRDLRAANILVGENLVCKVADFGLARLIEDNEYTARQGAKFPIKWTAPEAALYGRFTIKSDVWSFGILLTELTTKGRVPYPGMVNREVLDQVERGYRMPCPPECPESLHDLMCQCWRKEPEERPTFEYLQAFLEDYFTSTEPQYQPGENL

Regarding `Cc1cc(N)c2ccccc2[n+]1CCCCCC[n+]1c(C)cc(N)c2ccccc21` [Compound 1a], the IC50 at Recombinant human PKCα amounted to 54 µM.

In the case of `Cc1cc(N)c2ccccc2[n+]1CCCCCCCC[n+]1c(C)cc(N)c2ccccc21` [Compound 1b], the IC50 at Recombinant human PKCα worked out at 25 ± 9 µM.

`Cc1cc(N)c2ccccc2[n+]1CCCCCCCCCC[n+]1c(C)cc(N)c2ccccc21` [Compound 1c, quinolinium, 1,1′-(1,10-decanediyl)bis(4-amino-2-methyldiiodide)]: the “sensitivity of pp60src tyrosine protein kinase to inhibition” value in [1] is reported as “insensitive”. In addition, the IC50 on Recombinant human PKCα was 11 µM and 11 to 12 µM; in assay [6] it was 10 to 14 µM. The inhibition at 0.25 µM at intracellular PKCα came out at 35%. In addition, the “loss of cell motility” value in assay [2] came out at 33%. In assay [3], the “sensitivity of PKA to inhibition” value is reported as “insensitive”. Also, the “sensitivity of calmodulin-dependent myosin light chain kinase to inhibition” value in [4] is listed as “insensitive”. The “inhibition of cell migration” value in assay [5] is reported as 20-30%.

As for `Cc1cc(N)c2ccccc2[n+]1CCCCCCCCCCCC[n+]1c(C)cc(N)c2ccccc21` [Compound 1d, 1,1′-(1,12-Dodecanediyl)bis[4-amino-2-methyl]quinolinium, diiodide], the IC50 on Recombinant human PKCα came to 5 ± 2 µM.

With `Cc1cc(N)c2ccccc2[n+]1CCCCCCCCCCCCCC[n+]1c(C)cc(N)c2ccccc21` [Compound 1e, 1,1′-(1,14-Tetradecanediyl)bis[4-amino-2-methyl]quinolinium, diiodide], on Recombinant human PKCα, the “fold stronger inhibitory potency compared with C6-DECA (1a)” value is 20 fold; the “fold stronger inhibitory potency than 1c” value is on record as 4 fold; the IC50 is 2.6 µM and 2.5 µM. Also, the “inhibition of intracellular PKC activity without UV” value on intracellular PKCα (250 nM alone, no UV) is “no inhibitory effect”. In addition, the inhibition at 0.25 µM at intracellular PKCα was 40 to 60%. The molecule also came in with a fewer pulmonary nodules in the assay with B16F10 cells of 40%. Also, in [5], the “inhibition of cell migration” value is recorded as 40-60%. In addition, in assay [5] (range of 0-500 nM), the “concentration dependence of inhibition of cell migration” value is reported as “dose-dependent”.

For the molecule `Cc1cc(N)c2ccccc2[n+]1CCCCCCCCCCCCCCCC[n+]1c(C)cc(N)c2ccccc21` [Compound 1f, 1,1′-(1,16-Hexadecanediyl)bis[4-amino-2-methyl]quinolinium, diiodide], at Recombinant human PKCα, the “fold stronger inhibitory potency compared with C6-DECA (1a)” value is recorded as 20 fold; the “fold stronger inhibitory potency than 1c” value was 4 fold; the IC50 was 2.6 µM and 2.8 µM.

On to `CCCCCCCCCC[n+]1c(C)cc(N)c2ccccc21` [Compound 2, N-Decyl-4-aminoquinaldinium iodide], for which, at Recombinant human PKCα, the IC50 stood at 117 ± 8 µM.

For `Cc1cc(N)c2ccccc2[n+]1C` [Compound 3], the IC50 at Recombinant human PKCα worked out at 3590 ± 510 µM.

The values are drawn from US6974871B2, “Dequalinium analogs” (priority 2000, dated 2005).
